Assay [1] concerns Candidatus Arthromitus (segmented filamentous bacteria, SFB). Kind of assay: SFB relative abundance by 16S rRNA sequencing in microbiota donors. In kind it is in vivo, C57BL6J mice. The note with it: STAT donors, all time points. The source says:
As above, mice were weaned onto normal chow at 4 weeks and switched to HFD at 6 weeks of age. Cecal microbiota was collected at 18 weeks of age and transferred to 3 to 4-week old germ-free Swiss-Webster mice, which were then housed in specific pathogen-free (SPF) conditions and fed HFD. Longitudinal fecal samples were collected and microbial communities were profiled by 16S rRNA sequencing using standard universal primers (Caporaso et al., ISMEJ 2012, 8:1621-4) at an average depth of approximately 5,800 sequences per sample.
Taxonomy was assigned based on the Green Genes May 2013 database, and the percentage of sequences classified as Candidatus Arthromitus, the candidate genus name for segmented filamentous bacteria (SFB), was calculated. […] SFB was present in all 3 control donor mice at levels >1%. SFB was undetectable in STAT donors at all time points, and in the Control donors following the switch to a HFD (8 weeks and beyond). SFB was nearly undetectable in microbiota recipients. Only one STAT-recipient mouse had SFB detected, and it was only one sequence that was classified as SFB out of 7,657 total sequences. SFB was not detected in any of the 7 Control or the other 7 STAT microbiota-recipients. […] Other microbiota taxa are thus important in the transferred phenotype.

Assay [2] concerns intestinal microbial communities. Briefly: EL-PAT: 16S rRNA V4 sequencing of fecal, ileal and cecal microbiota. The format is in vivo, C57BL/6 mice. On the procedure: For the experiments, dams and their litters were divided into control and antibiotic groups. In the EL-PAT study dams in the antibiotic groups received Tylosin tartrate (Sigma Aldrich, St. Louis Mo.) dissolved in distilled deionized water (neutral pH) at a concentration of 0.33 mg/ml, and dams in the control group received non-acidified water. Mice in the PAT3 group received two additional doses of antibiotics at day 27 and 36 of life for 3 days. In some experiments, C57BL/6 mice were exposed to one, PAT1, (n=17, M=9, F=8) or three, PAT3, (n=19, M=10, F=9) doses of the macrolide Tylosin in non-acidified water or non-acidified water alone (control, n=12, M=9, F=3), early-in-life, to mirror pediatric antibiotic exposures. For the first antibiotic pulse […] of Tylosin tartrate (Sigma) was dissolved in 250 ml of non-acidified water and given to PAT1 and PAT3 lactating dams at pup day 5 of life for 5 days. For the second and third pulse, pups received the antibiotic directly at day 27 and day 36 of life respectively, for three days. Mice were sacrificed at 7 weeks of age and fecal, ileal and cecal contents were collected. Throughout the experiment mouse weight and fecal contents were collected. Fecal, ileal and cecal DNA were extracted using Mobio 96-well extraction kit (MO BIO Laboratories, Inc., CA). For amplicon library generation, the V4 region of 16s rRNA gene was amplified with gene specific primers (SEQ ID NOS: 39-43). Amplicons were prepared in triplicate, pooled and quantified. The 254 bp V4 region was sequenced using the Illumina MiSeq 2×150 bp platform (Illumina Inc., CA). Forward and reverse reads were joined using the ea-utils module fastq-join. Demultiplexing and operational taxonomic unit (OTU) picking were performed using the bioinformatic tool Qiime, while pair-end reads were demultiplexed with the script split_libraries_fastq.py. Reads were quality filtered at a phred score of 20 using -q flag, and the flag --rev_comp_mapping allowed reading of the reverse complement barcode before demultiplexing. Open referenced OTU picking was performed using pick_open_reference_otus.py script to assign a taxonomy for each OTU representative sequence and build a phylogenetic tree, and an OTU table. For alpha and beta diversity, samples were rarified at a sequencing depth of 1000.

The test system of assay [3] is splenic CD4+ and CD8+ T-cells. Briefly: NOD: flow cytometry of IFNγ-producing splenic T-cells. In kind it is in vivo. The note with it: 6-week old male NOD mice, n=7, vs controls, p<0.01. The method, then: Leukocytes were isolated from spleens harvested from 6-week old control (n=7) and PAT-treated (n=7) NOD mice. Flow cytometric analysis was performed to assess T-cell cytokine production. Mann-Whitney U-test, ** p<0.01. Bar heights represent the means and error bars represent the standard deviations. […] Taxa with at least two significant timepoints (indicated by *) are illustrated at the phylum, genus, and species level. Dark grey and light grey coloration indicates enrichment at the specified time point in control and in PAT specimens, respectively.
Background: A flow cytometer gives signals particle by particle.

Where [4] appears, read: PAT3 group, two additional doses.
The mark [5] stands for this setting: at sacrifice, six-weeks (PAT1) and one-week (PAT3) after last pulse.
Setting [6] is: one therapeutic dose, dams and offspring.

Each structure is given as a SMILES string. Structures can show the parent of a compound that is named as a salt.

Turning to `CC1(C)S[C@@H]2[C@H](NC(=O)COc3ccccc3)C(=O)N2[C@H]1C(=O)[O-].[K+]` [STAT, penicillin VK], the SFB relative abundance result in assay [1] is given as “undetectable”.

Take `CC[C@H]1OC(=O)C[C@@H](O)[C@H](C)[C@@H](O[C@@H]2O[C@H](C)[C@@H](O[C@H]3C[C@@](C)(O)[C@@H](O)[C@H](C)O3)[C@H](N(C)C)[C@H]2O)[C@@H](CC=O)C[C@@H](C)C(=O)/C=C/C(C)=C/[C@@H]1CO[C@@H]1O[C@H](C)[C@@H](O)[C@@H](OC)[C@H]1OC` [Tylosin, Tylosin tartrate]: in assay [2] (setting [4]), the “relative abundance of Blautia producta” value is on record as “blooms” and the “relative abundance of family Enterobacteriaceae” value is listed as “blooms”. Moreover, in assay [2] (setting [5]), the ileal evenness entry is reported as “decreases” and the ileal richness result was “decreases”. For the same compound, in assay [2] (early-life PAT), the “abundance of Bifidobacterium (ileal, LEfSe)” value is “decreases”; the “abundance of S24-7 (ileal, LEfSe)” value is on record as “decreases”; the “abundance of SFB (ileal, LEfSe)” value is listed as “decreases”; the “relative abundance of Akkermansia muciniphila (ileal, LEfSe)” value is reported as “increases”. For the same compound, the “ileal microbial communities (PCoA, Jenson-Shannon divergence)” value in assay [2] (male and female, independent of sex) was “significantly different from Control”. Besides, the “fecal, cecal and ileal microbial diversity (phylogenetic diversity)” value in assay [2] (male pups over time, one or three pulses vs Control) is “decreases”. Further, the “intestinal microbial populations (PCoA, weighted Unifrac)” value in assay [2] (one and three therapeutic doses early in life, males and females) is “significantly alters”. Moreover, in assay [2] (setting [6]), the “Segemented Filamentous Bacteria” value is “loss” and the “relative abundance of Bacteroides uniformis” value is listed as “blooms”. Also, the “relative abundance of Akkermansia muciniphila” value in assay [2] (one therapeutic dose, dams and offspring, fecal, ileal and cecal samples) is on record as “blooms”. Besides, in assay [3], the “proportion of IFNγ-producing splenic CD4+ T-cells” value was “increased” and the “proportion of IFNγ-producing splenic CD8+ T-cells” value is on record as “increased”.

(Values after US20160120915A1, “METHODS FOR MANIPULATING IMMUNE RESPONSES BY ALTERING MICROBIOTA” (NEW YORK UNIVERSITY, priority 2013, published 2016).)
